Experimental data from patent US6340694B1, “Diarylbenzopyran derivatives as cyclooxygenase-2 inhibitors” (Pacific Corporation, priority 1998, dated 2002).

Columns and labels:
COX-1 = target: T1, COX-1 (Mus musculus, UniProt P22437); experiment: Evaluation of COX-1's inhibition efficacy (macrophages without aspirin and LPS pre-treatment); format: cell-based, C57BL/6 mouse; conditions: for inhibition at 10 µg/mL: 10 μg/ml; for inhibition at 1 µg/mL: 1 μg/ml
T1 construct: there is no pre-treatment of aspirin and LPS in the adhesion of macrophage; endogenous in cells; host or cells: peritoneal macrophages of C57BL/6 mouse, without aspirin and LPS pre-treatment
T1 sequence (P22437 27-602): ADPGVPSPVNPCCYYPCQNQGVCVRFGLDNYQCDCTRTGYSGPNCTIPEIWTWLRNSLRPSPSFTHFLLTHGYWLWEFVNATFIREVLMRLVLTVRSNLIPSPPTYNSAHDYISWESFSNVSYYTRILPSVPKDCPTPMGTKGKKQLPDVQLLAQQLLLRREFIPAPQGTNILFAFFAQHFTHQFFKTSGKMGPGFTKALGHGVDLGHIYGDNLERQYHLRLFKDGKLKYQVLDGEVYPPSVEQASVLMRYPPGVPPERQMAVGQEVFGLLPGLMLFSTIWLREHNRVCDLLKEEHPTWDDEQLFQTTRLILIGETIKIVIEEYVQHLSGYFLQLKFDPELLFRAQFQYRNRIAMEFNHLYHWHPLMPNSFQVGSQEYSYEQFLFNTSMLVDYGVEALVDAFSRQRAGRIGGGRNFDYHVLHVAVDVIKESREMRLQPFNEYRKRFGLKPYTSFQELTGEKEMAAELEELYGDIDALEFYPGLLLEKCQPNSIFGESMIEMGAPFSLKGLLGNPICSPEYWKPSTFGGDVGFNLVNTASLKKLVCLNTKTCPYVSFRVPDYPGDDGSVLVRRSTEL
Protocol: Regarding the compounds in the above Examples and indomethacin, the inhibition efficacy of COX-2 and COX-1 are being measured by the following two methods.
After cleaning C57BL/6 mouse's abdomen by 70% EtOH, the skin of mouse's abdomen was eliminated cautiously not to harm peritomeum and 5 ml of cold PBS was poured into the abdominal cavity and in certain times later macrophage-bleeding abdominal-liquid was collected by syringe. By adding RPMI-1640 badge containing penicillin(100 unit/mt) and streptomycin([…]) to cell pellet obtained by centrifugation of collected liquid about 5 minutes in 1500 rpm, it was disperesed and also COX-1 existing in the cell was inactivated by treating with 500 μM aspirin. After putting 1 ml cell suspension having cell number of 1×10^6 cells/mu into each 24-well microtiter plates, macrophages were adhered to the bottom of plate by culturing in the condition of 5% CO2/95% O2, at a temperature of 37° C. for 2 hours. Other cells not being adhered to were eliminated by washing two times with PBS. The purity of macrophages obtained through this process was identified by differential counting. After adding RPMI-1640 badge(normally 5×10^5 cell/ml) containing 3% right fetal blood serum to macrophage and treating it with LPS(lipopolysaccharide) to make final concentration as 10 μg/ml, it was cultured in the condition of 5% CO2, at a temperature of 37° C. for 16 hours. After inducing COX-2 by LPS, the cell culture medium was eliminated and macrophages was washed two times with PBS. And 1 ml of RRPI-1640 badge was added to each well again and after treating them with sample with appropriate concentration, they were cultured at a temperature of 37i É for 10 minutes. And then treated them with arachidonic acid to make their final concentration as 10 μM and cultured them additional 10 minutes, all the supernatant liquid of reaction was obtained. The amount of PGE2 produced in the supernatant liquid of reaction was determined by the PGE2 radioimmuno assay. The 100% COX-2's activation is referenced by the difference of the amount of PGE2 produced in the supernatant liquid of reaction between with 10 μM arachidonic acid treatment and without 10 μM arachidonic acid treatment.
2. Evaluation of COX-1's Inhibition Efficacy
Following the same procedure as the above evaluation of COX-2's inhibition efficacy, but there is no pre-treatment of aspirin and LPS in the adhesion of macrophage.

COX-2 = target: T2, COX-2 (Mus musculus, UniProt Q05769); experiment: Evaluation of COX-2's inhibition efficacy (PGE2 radioimmuno assay, LPS-induced, aspirin-pretreated peritoneal macrophages); format: cell-based, C57BL/6 mouse; conditions: for inhibition at 0.1 µg/mL: 0.1 μg/ml; for inhibition at 1 µg/mL: 1 μg/ml; for inhibition at 10 µg/mL: 10 μg/ml
T2 construct: endogenous in cells; host or cells: peritoneal macrophages of C57BL/6 mouse, aspirin-pretreated, LPS-induced
T2 sequence (Q05769 18-604): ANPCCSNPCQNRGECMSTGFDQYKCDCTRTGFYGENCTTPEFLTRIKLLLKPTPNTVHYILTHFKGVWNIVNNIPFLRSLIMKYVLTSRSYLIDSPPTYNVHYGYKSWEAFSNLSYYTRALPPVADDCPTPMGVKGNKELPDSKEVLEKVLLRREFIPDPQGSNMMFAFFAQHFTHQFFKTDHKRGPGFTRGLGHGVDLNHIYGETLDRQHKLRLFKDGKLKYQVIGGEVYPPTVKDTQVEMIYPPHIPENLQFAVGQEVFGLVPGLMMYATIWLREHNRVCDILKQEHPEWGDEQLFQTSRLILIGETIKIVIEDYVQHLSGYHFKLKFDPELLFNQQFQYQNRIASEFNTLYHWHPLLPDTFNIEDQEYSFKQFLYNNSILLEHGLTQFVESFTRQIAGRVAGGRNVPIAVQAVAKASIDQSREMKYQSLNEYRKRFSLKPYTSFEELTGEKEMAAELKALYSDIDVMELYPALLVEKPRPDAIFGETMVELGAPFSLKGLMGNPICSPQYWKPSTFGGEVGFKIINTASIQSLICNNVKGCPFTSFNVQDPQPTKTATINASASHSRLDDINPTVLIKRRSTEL
Protocol: Regarding the compounds in the above Examples and indomethacin, the inhibition efficacy of COX-2 and COX-1 are being measured by the following two methods. […] Evaluation of COX-2's Inhibition Efficacy (J. Pharmacol. Exp. […] After cleaning C57BL/6 mouse's abdomen by 70% EtOH, the skin of mouse's abdomen was eliminated cautiously not to harm peritomeum and 5 ml of cold PBS was poured into the abdominal cavity and in certain times later macrophage-bleeding abdominal-liquid was collected by syringe. […] After putting 1 ml cell suspension having cell number of 1×10^6 cells/mu into each 24-well microtiter plates, macrophages were adhered to the bottom of plate by culturing in the condition of 5% CO2/95% O2, at a temperature of 37° C. for 2 hours. Other cells not being adhered to were eliminated by washing two times with PBS. The purity of macrophages obtained through this process was identified by differential counting. […] After inducing COX-2 by LPS, the cell culture medium was eliminated and macrophages was washed two times with PBS. And 1 ml of RRPI-1640 badge was added to each well again and after treating them with sample with appropriate concentration, they were cultured at a temperature of 37i É for 10 minutes. And then treated them with arachidonic acid to make their final concentration as 10 μM and cultured them additional 10 minutes, all the supernatant liquid of reaction was obtained. The amount of PGE2 produced in the supernatant liquid of reaction was determined by the PGE2 radioimmuno assay.

| SMILES | inhibition at 10 µg/mL (COX-1) | melting point | inhibition at 0.1 µg/mL (COX-2) | inhibition at 1 µg/mL (COX-2) | inhibition at 10 µg/mL (COX-2) | inhibition at 1 µg/mL (COX-1) |
| --- | --- | --- | --- | --- | --- | --- |
| CS(=O)(=O)c1ccc(-c2oc3ccccc3c(=O)c2-c2ccccc2)cc1 [Example 2, 2-(4-(Methylsulfonyl)phenyl)-3-phenyl-4H-1-benzopyran-4-one] | < 5% | 208 to 209 °C | 34% | 68% | 81% | – |
| CS(=O)(=O)c1ccc(-c2oc3ccccc3c(=O)c2-c2cccc([N+](=O)[O-])c2)cc1 [Example 4, 2-(4-(methylsulfonyl)phenyl)-3-(3-nitrophenyl)-4H-1-benzopyran-4-one] | < 5% | 223 to 224 °C | – | – | < 5% | – |
| CS(=O)(=O)c1ccc(-c2oc3ccccc3c(=O)c2-c2ccc(C=O)cc2)cc1 [Example 9, 3-(4-Formylphenyl)-2-(4-(methylsulfonyl)phenyl)-4H-1-benzopyran-4-one] | < 5% | 189 to 190 °C | – | < 5% | 29% | – |
| CS(=O)(=O)c1ccc(-c2oc3ccccc3c(=O)c2-c2ccncc2)cc1 [Example 16, 2-(4-(Methylsulfonyl)phenyl)-3-(4-pyridinyl)-4H-1-benzopyran-4-one] | < 5% | 204 to 205 °C | – | – | 24% | – |
| Cn1ccc(-c2c(-c3ccc(S(C)(=O)=O)cc3)oc3ccccc3c2=O)n1 [Example 17, 3-(N-methyl-3-pyrazolyl)-2-(4-(methylsulfonyl)phenyl)-4H-1-benzopyran-4-one] | < 5% | 202 to 203 °C | – | – | 13% | – |
| COc1ccc(-c2c(-c3ccc(S(C)(=O)=O)cc3)oc3ccccc3c2=O)cn1 [Example 18, 3-(2-Methoxy-5-pyridinyl)-2-(4-(methylsulfonyl)phenyl)-4H-1-benzopyran-4-one] | 18% | 226 to 227 °C | – | 51% | 86% | – |
| CS(=O)(=O)c1ccc(-c2oc3ccccc3c(=O)c2-c2cncc(Br)c2)cc1 [Example 19, 3-(5-Bromo-3-pyridinyl)-2-(4-(methylsulfonyl)phenyl)-4H-1-benzopyran-4-one] | 11% | 197 to 199 °C | – | 18% | 35% | – |
| Cc1ccc(-c2c(-c3ccc(S(C)(=O)=O)cc3)oc3ccccc3c2=O)cn1 [Example 20, 3-(2-Methyl-5-pyridinyl)-2-(4-(methylsulfonyl)phenyl)-4H-1-benzopyran-4-one] | < 5% | 195 to 196 °C | – | < 5% | 85% | – |
| CS(=O)(=O)c1ccc(-c2oc3ccccc3c(=O)c2-c2ccc(C(F)(F)F)nc2)cc1 [Example 21, 2-(4-(Methylsulfonyl)phenyl)-3-(2-trifluoromethyl-5-pyridinyl)-4H-1-benzopyran-4-one] | < 5% | 215 to 217 °C | – | 35% | 55% | – |
| CS(=O)(=O)c1ccc(-c2oc3ccccc3c(=S)c2-c2cccc(Cl)c2)cc1 [Example 40, 3-(3-Chlorophenyl)-2-(4-(methylsulfonyl)phenyl)-4H-1-benzopyran-4-thione] | < 5% | 196 to 198 °C | 6% | 29% | 69% | – |
| Cc1ccccc1-c1c(-c2ccc(S(C)(=O)=O)cc2)oc2ccccc2c1=S [Example 41, 3-(2-Methylphenyl)-2-(4-(methylsulfonyl)phenyl)-4H-1-benzopyran-4-thione] | < 5% | 234 °C | < 5% | 36% | 96% | – |
| NS(=O)(=O)c1ccc(-c2oc3ccc(F)cc3c(=O)c2-c2ccc(F)cc2)cc1 [Example 48, 2-(4-(Aminosulfonyl)phenyl)-6-fluoro-3-(4-fluorophenyl)-4H-1-benzopyran-4-one] | 48% | 224 to 226 °C | 63% | 100% | – | 36% |
| NS(=O)(=O)c1ccc(-c2oc3ccc(F)cc3c(=O)c2-c2cccc(F)c2)cc1 [Example 51, 2-(4-(Aminosulfonyl)phenyl)-6-fluoro-3-(3-fluorophenyl)-4H-1-benzopyran-4-one] | 6% | 257 to 258 °C | 56% | 83% | 100% | – |
| NS(=O)(=O)c1ccc(-c2oc3ccccc3c(=O)c2-c2ccc(F)cc2)cc1 [Example 52, 2-(4-(Aminosulfonyl)phenyl)-3-(4-fluorophenyl)-4H-1-benzopyran-4-one] | 67% | 267 to 268 °C | 73% | 96% | 99% | 62% |
| NS(=O)(=O)c1ccc(-c2oc3ccccc3c(=O)c2-c2ccccc2)cc1 [Example 53, 2-(4-(Aminosulfonyl)phenyl)-3-phenyl-4H-1-benzopyran-4-one] | 61% | 218 to 220 °C | 76% | 90% | 92% | 52% |
